Where two headings read alike, the source gives them in different places.

Experiment [1] relates to HCV genotype 1b (Con1) replicon in HUH-7 cells. As to the kind of experiment: HCV replicon luciferase reporter assay, genotype 1b. The experiment is classed as cell-based. The settings on record: Hepatitis C virus, Huh-7, 72 h, HCV genotype 1b replicon luciferase assay, 3 days incubation, range class, read-out: LE_1b (EC50, range). The method, boiled down: (§1)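 Replicon inhibition for both genotypes was measured as Renilla luciferase signal (EnduRen, 7.5 μM final, 2 h) after 3-day, 37° C exposure of replicon-bearing HUH-7 cells in 4% FCS DMEM, 0.5% DMSO. The 1b construct carries S1179I; the 1a H77 construct carries P1496L and S2204I. Twenty-point, 3-fold dilutions were fitted four-parametrically for EC50, and CC50 was taken from multiplexed Cell Titer-Blue.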

Experiment [2] has as its system HCV genotype 1a (H77 strain) replicon in HUH-7 cells. Description: HCV replicon luciferase reporter assay, genotype 1a. The class given is cell-based. The settings on record: Hepatitis C virus, Huh-7, 72 h, HCV genotype 1a replicon luciferase assay, 3 days incubation, range class, read-out: LE_1a (EC50, range). The method, boiled down: as §1

As to `COc1ccc2c(O[C@@H]3C[C@H]4C(=O)N[C@]5(C(=O)NS(=O)(=O)C6(CF)CC6)C[C@H]5/C=C\CC[C@@H](C)C[C@@H](C)[C@H](NC(=O)OC(C)(C)C(F)(F)F)C(=O)N4C3)nc(N(C)C)nc2c1` [Compound 3010, 1,1,1-trifluoro-2-methylpropan-2-yl((2R,6S,7R,9R,13aS,14aR,16aS,Z)-2-((2-(dimethylamino)-7-methoxyquinazolin-4-yl)oxy)-14a-(((1-(fluoromethyl)cyclopropyl)sulfonyl)carbamoyl)-7,9-dimethyl-5,16-dioxo-1,2,3,5,6,7,8,9,10,11,13a,14,14a,15,16,16a-hexadecahydrocyclopropa[e]pyrrolo[1,2-a][1,4]diazacyclopentadecin-6-yl)carbamate], the concentration giving a half-maximal response (EC50) in experiment [1] and in experiment [2] was < 5.46 nM throughout.
Regarding `COc1ccc2c(O[C@@H]3C[C@H]4C(=O)N[C@]5(C(=O)NS(=O)(=O)C6(C)CC6)C[C@H]5/C=C\CC[C@H](C)C[C@@H](C)[C@H](NC(=O)OC(C)(C)C(F)(F)F)C(=O)N4C3)nc(-c3ccc(OC(C)C)cc3)nc2c1` [Compound 3011, 1,1,1-trifluoro-2-methylpropan-2-yl((2R,6S,7R,9S,13aS,14aR,16aS,Z)-2-((2-(4-isopropoxyphenyl)-7-methoxyquinazolin-4-yl)oxy)-7,9-dimethyl-14a-(((1-methylcyclopropyl)sulfonyl)carbamoyl)-5,16-dioxo-1,2,3,5,6,7,8,9,10,11,13a,14,14a,15,16,16a-hexadecahydrocyclopropa[e]pyrrolo[1,2-a][1,4]diazacyclopentadecin-6-yl)carbamate], the concentration giving a half-maximal response (EC50) in experiment [1] was < 5.46 nM; in experiment [2] it was 4.82 to 103 nM.
Taken in the same sequence, the figures for `COc1ccc2c(O[C@@H]3C[C@H]4C(=O)N[C@]5(C(=O)NS(=O)(=O)C6(C)CC6)C[C@H]5/C=C\CC[C@@H](C)C[C@@H](C)[C@H](NC(=O)OC(C)(C)C(F)(F)F)C(=O)N4C3)nc(-c3ccc(OC(C)C)cc3)nc2c1` [Compound 3012, 1,1,1-trifluoro-2-methylpropan-2-yl((2R,6S,7R,9R,13aS,14aR,16aS,Z)-2-((2-(4-isopropoxyphenyl)-7-methoxyquinazolin-4-yl)oxy)-7,9-dimethyl-14a-(((1-methylcyclopropyl)sulfonyl)carbamoyl)-5,16-dioxo-1,2,3,5,6,7,8,9,10,11,13a,14,14a,15,16,16a-hexadecahydrocyclopropa[e]pyrrolo[1,2-a][1,4]diazacyclopentadecin-6-yl)carbamate] were < 5.46 nM and < 5.46 nM.
Regarding `COc1ccc2c(O[C@@H]3C[C@H]4C(=O)N[C@]5(C(=O)NS(=O)(=O)C6(CF)CC6)C[C@H]5/C=C\CC[C@H](C)C[C@@H](C)[C@H](NC(=O)OC(C)(C)C)C(=O)N4C3)nc(N3CCCC3)nc2c1` [Compound 3013, tert-butyl ((2R,6S,7R,9S,13aS,14aR,16aS,Z)-14a-(((1-(fluoromethyl)cyclopropyl)sulfonyl)carbamoyl)-2-((7-methoxy-2-(pyrrolidin-1-yl)quinazolin-4-yl)oxy)-7,9-dimethyl-5,16-dioxo-1,2,3,5,6,7,8,9,10,11,13a,14,14a,15,16,16a-hexadecahydrocyclopropa[e]pyrrolo[1,2-a][1,4]diazacyclopentadecin-6-yl)carbamate], the 50% effective concentration (EC50) in experiment [1] and in experiment [2] was 4.82 to 103 nM throughout.
`COc1ccc2c(O[C@@H]3C[C@H]4C(=O)N[C@]5(C(=O)NS(=O)(=O)C6(CF)CC6)C[C@H]5/C=C\CC[C@@H](C)C[C@@H](C)[C@H](NC(=O)OC(C)(C)C)C(=O)N4C3)nc(N3CCCC3)nc2c1` [Compound 3014, tert-butyl ((2R,6S,7R,9R,13aS,14aR,16aS,Z)-14a-(((1-(fluoromethyl)cyclopropyl)sulfonyl)carbamoyl)-2-((7-methoxy-2-(pyrrolidin-1-yl)quinazolin-4-yl)oxy)-7,9-dimethyl-5,16-dioxo-1,2,3,5,6,7,8,9,10,11,13a,14,14a,15,16,16a-hexadecahydrocyclopropa[e]pyrrolo[1,2-a][1,4]diazacyclopentadecin-6-yl)carbamate]: the concentration giving a half-maximal response (EC50) is < 5.46 nM in experiment [1] and 4.82 to 103 nM in experiment [2].
The corresponding values for `COc1ccc2c(O[C@@H]3C[C@H]4C(=O)N[C@]5(C(=O)NS(=O)(=O)C6(CF)CC6)C[C@H]5/C=C\CC[C@@H](C)C[C@@H](C)[C@H](NC(=O)OC(C)(C)C)C(=O)N4C3)nc(OC)nc2c1` [Compound 3015, tert-butyl ((2R,6S,7R,9R,13aS,14aR,16aS,Z)-2-((2,7-dimethoxyquinazolin-4-yl)oxy)-14a-(((1-(fluoromethyl)cyclopropyl)sulfonyl)carbamoyl)-7,9-dimethyl-5,16-dioxo-1,2,3,5,6,7,8,9,10,11,13a,14,14a,15,16,16a-hexadecahydrocyclopropa[e]pyrrolo[1,2-a][1,4]diazacyclopentadecin-6-yl)carbamate] are < 5.46 nM and < 5.46 nM.
The corresponding values for `COc1ccc2c(O[C@@H]3C[C@H]4C(=O)N[C@]5(C(=O)NS(=O)(=O)C6CC6)C[C@H]5/C=C\CC[C@H](C)C[C@@H](C)[C@H](NC(=O)OC(C)(C)C)C(=O)N4C3)nc(-c3ccc(OC(C)C)cc3)nc2c1` [Compound 3016, tert-butyl ((2R,6S,7R,9S,13aS,14aR,16aS,Z)-14a-((cyclopropylsulfonyl)carbamoyl)-2-((2-(4-isopropoxyphenyl)-7-methoxyquinazolin-4-yl)oxy)-7,9-dimethyl-5,16-dioxo-1,2,3,5,6,7,8,9,10,11,13a,14,14a,15,16,16a-hexadecahydrocyclopropa[e]pyrrolo[1,2-a][1,4]diazacyclopentadecin-6-yl)carbamate] are < 5.46 nM and < 5.46 nM.
Taken in the same sequence, the figures for `COc1ccc2c(O[C@@H]3C[C@H]4C(=O)N[C@]5(C(=O)NS(=O)(=O)C6CC6)C[C@H]5/C=C\CC[C@@H](C)C[C@@H](C)[C@H](NC(=O)OC(C)(C)C)C(=O)N4C3)nc(-c3ccc(OC(C)C)cc3)nc2c1` [Compound 3017, tert-butyl ((2R,6S,7R,9R,13aS,14aR,16aS,Z)-14a-((cyclopropylsulfonyl)carbamoyl)-2-((2-(4-isopropoxyphenyl)-7-methoxyquinazolin-4-yl)oxy)-7,9-dimethyl-5,16-dioxo-1,2,3,5,6,7,8,9,10,11,13a,14,14a,15,16,16a-hexadecahydrocyclopropa[e]pyrrolo[1,2-a][1,4]diazacyclopentadecin-6-yl)carbamate] were < 5.46 nM and < 5.46 nM.
On to `COc1ccc2c(O[C@@H]3C[C@H]4C(=O)N[C@]5(C(=O)NS(=O)(=O)C6(CF)CC6)C[C@H]5/C=C\CC[C@H](C)C[C@@H](C)[C@H](NC(=O)OC(C)(C)C(F)(F)F)C(=O)N4C3)nc(N3CCCC3)nc2c1` [Compound 3018, 1,1,1-trifluoro-2-methylpropan-2-yl((2R,6S,7R,9S,13aS,14aR,16aS,Z)-14a-(((1-(fluoromethyl)cyclopropyl)sulfonyl)carbamoyl)-2-((7-methoxy-2-(pyrrolidin-1-yl)quinazolin-4-yl)oxy)-7,9-dimethyl-5,16-dioxo-1,2,3,5,6,7,8,9,10,11,13a,14,14a,15,16,16a-hexadecahydrocyclopropa[e]pyrrolo[1,2-a][1,4]diazacyclopentadecin-6-yl)carbamate], for which the half-maximal effective concentration (EC50) in experiment [1] and in experiment [2] was 4.82 to 103 nM in each case.
Take `COc1ccc2c(O[C@@H]3C[C@H]4C(=O)N[C@]5(C(=O)NS(=O)(=O)C6(CF)CC6)C[C@H]5/C=C\CC[C@@H](C)C[C@@H](C)[C@H](NC(=O)OC(C)(C)C(F)(F)F)C(=O)N4C3)nc(N3CCCC3)nc2c1` [Compound 3019, 1,1,1-trifluoro-2-methylpropan-2-yl((2R,6S,7R,9R,13aS,14aR,16aS,Z)-14a-(((1-(fluoromethyl)cyclopropyl)sulfonyl)carbamoyl)-2-((7-methoxy-2-(pyrrolidin-1-yl)quinazolin-4-yl)oxy)-7,9-dimethyl-5,16-dioxo-1,2,3,5,6,7,8,9,10,11,13a,14,14a,15,16,16a-hexadecahydrocyclopropa[e]pyrrolo[1,2-a][1,4]diazacyclopentadecin-6-yl)carbamate]: the EC50 in experiment [1] was < 5.46 nM; in experiment [2], 4.82 to 103 nM.
Turning to `COc1ccc2c(O[C@@H]3C[C@H]4C(=O)N[C@]5(C(=O)NS(=O)(=O)C6(CF)CC6)C[C@H]5/C=C\CC[C@@H](C)C[C@@H](C)[C@H](NC(=O)OC(C)(C)C(F)(F)F)C(=O)N4C3)nc(OC)nc2c1` [Compound 3020], the results for the concentration giving a half-maximal response (EC50) in experiment [1] (GETYPE1B) and in experiment [2] (GETYPE1A) were < 5.46 nM and 4.82 to 103 nM, respectively.
As to `COc1ccc2c(O[C@@H]3C[C@H]4C(=O)N[C@]5(C(=O)NS(=O)(=O)C6CC6)C[C@H]5/C=C\CC[C@H](C)C[C@@H](C)[C@H](NC(=O)OC(C)(C)C(F)(F)F)C(=O)N4C3)nc(-c3ccc(OC(C)C)cc3)nc2c1` [Compound 3021, 1,1,1-trifluoro-2-methylpropan-2-yl((2R,6S,7R,9S,13aS,14aR,16aS,Z)-14a-((cyclopropylsulfonyl)carbamoyl)-2-((2-(4-isopropoxyphenyl)-7-methoxyquinazolin-4-yl)oxy)-7,9-dimethyl-5,16-dioxo-1,2,3,5,6,7,8,9,10,11,13a,14,14a,15,16,16a-hexadecahydrocyclopropa[e]pyrrolo[1,2-a][1,4]diazacyclopentadecin-6-yl)carbamate], the concentration giving a half-maximal response (EC50) in experiment [1] and in experiment [2] was < 5.46 nM throughout.

The values are drawn from patent US9499550B2 (BRISTOL-MYERS SQUIBB COMPANY, priority 2012, dated 2016).
